SMILES strings stand for the structures. Where only a bound is given, the exact number is not on record here.

The subject of series [1] is L. amazonensis LV78 promastigotes. Description: Anti-promastigote activity (MTS assay), L. amazonensis LV78. Particulars: Leishmania amazonensis, 72 hours. The series is classed as cell-based. As for the experimental part:
(§1) Promastigotes of visceral L. donovani Ld39 and LdHU3, and cutaneous L. amazonensis LV78, L. braziliensis UA847 and L. major FV1 were employed in the study. All strains were cultured in Schneider's Drosophila Medium (Invitrogen), pH 6.9 supplemented with 10% (v/v) heat inactivated fetal bovine serum (Hyclone) with 4 mM glutamine (Sigma) and 25 μg/mL gentamicin solution (Invitrogen) at 27° C. for 4 days. RAW264.7 cells were cultured in supplemented DMEM media with 10% heat inactivated FBS and 100 U/mL penicillin and 100 μg/mL of streptomycin. They were maintained at 37° C. in a humidified atmosphere with 5% CO2. The cells were split constantly after a confluent monolayer has been formed. The cells were harvested by a cell scraper.
(§2) Anti-promastigote activity was determined according to previous procedures (1) by Cell Titer 96® Aqueous Assay (Promega) that employed a tetrazolium compound. Promastigotes were seeded into 96-well flat bottom microtiter plate at 1×10^5 cells per well in a final volume of 100 μL medium and incubated with a series of concentrations of synthetic FM. Parasites were incubated at 27° C. for 72 hours. After 72 hours of incubation, 10 μL of MTS:PMS mixture [MTS:2-(4,5-Dimethylthiazol-2-yl-)-5-[3-(carboxymethoxy)phenyl]-2-(4-sulfophenyl)-2H-tetrazolium); PMS: phenazine methosulfate both purchased from Sigma] was added into each well of microtiter plate. The plate was then incubated at 27° C. for 4 hours for color development. After 4 hours of incubation, the OD values were determined at 490 nm using automatic microtiter plate reader (Bio-Rad).
(§3) IC50 values of known antileishmanials and the amine-containing flavonoid monomers of the present invention to promastigotes (L. amazonensis LV78, L major FV1, L. donovani HU3, L. donovani 39), macrophages (Raw 264.7 and PEM) and mouse fibroblast (L929) were determined. The anti-promastigotes activities and cytotoxicity of the amine-containing flavonoid monomers of the invention are shown in Table 1.
For orientation: Formazan colour is commonly taken as a measure of viable cells.

Series [2] in a line: Cytotoxicity, L929 fibroblasts. The series is classed as cell-based, mouse. Particulars: mouse. As for the experimental part: as §3
In series [3] the test system is L. amazonensis LV78 amastigotes. Nature of the series: Anti-amastigote activity in infected PEM, L. amazonensis LV78. The series is classed as cell-based. Particulars: Leishmania amazonensis, 72 h; infected PEM, 3 days, Giemsa. As to the method: (§4) Mouse peritoneal elicited macrophages (PEM) were obtained as previously described (2). A round cover slip (12 mm in diameter) was placed into each well of 24-well culture plate. Mouse PEM were resuspended in supplemented DMEM media containing 10% heat inactivated FBS (v/v), 100 U/mL penicillin and 100 μg/mL streptomycin and seeded into each well at a cell density of 1×10^5 cells per 500 μL. Macrophages were allowed to attach overnight. Non-adherent cells were removed by gentle washing with un-supplemented DMEM media twice. Adherent macrophages were infected with late-log promastigotes at a parasite-to-macrophage ratio of 20:1 overnight at 37° C. with 5% CO2. Non-internalized promastigotes were removed by washing twice with un-supplemented DMEM media. Infected macrophages were further incubated in 500 μL of supplemented DMEM media in the presence or absence of FM for 72 hours at 37° C. After incubation, cover slips were stained with Giemsa and the percentage of macrophages infected and number of amastigotes per 100 macrophages was enumerated.
(§5) PEM cells were infected with late-log promastigotes (L. amazonensis LV78, L. braziliensis UA847, L. donovani HU3, L. donovani 39) for 24 hr at 37° C. Infected macrophages were then treated with various antileishmanials and incubated for 3 days at 37° C. After 3 days, the cover slips were stained with Giemsa. The number of amastigotes per 100 macrophages were determined and used to calculate IC50 values.

The test system of series [4] is L. donovani HU3 amastigotes. Description: Anti-amastigote activity in infected PEM, L. donovani HU3. Particulars: Leishmania donovani, 72 h; infected PEM, 3 days, Giemsa; SSG-sensitive. The class given is cell-based. As for the experimental part:
as §4, §5

The test system of series [5] is L. donovani HU3 promastigotes. Description: Anti-promastigote activity (MTS assay), L. donovani HU3. The class given is cell-based. Conditions: Leishmania donovani, 72 hours. As to the method: as §1, §2, §3
Series [6] in a line: Cytotoxicity, peritoneal elicited macrophages (PEM). The class given is cell-based, mouse. Particulars: mouse, Cytotoxicity IC50, PEM. As to the method: as §4, §3
The subject of series [7] is L. major FV1 promastigotes. Nature of the series: Anti-promastigote activity (MTS assay), L. major FV1. Conditions: Leishmania major, 72 hours. The class given is cell-based. As for the experimental part: as §1, §2, §3
Series [8] relates to L. donovani Ld39 amastigotes (SSG-resistant). Nature of the series: Anti-amastigote activity in infected PEM, L. donovani Ld39. The class given is cell-based. Conditions: for IC50: Leishmania donovani, 72 h, infected PEM, 3 days, Giemsa, SSG-resistant; for Selective index (a)/(c): IC50 RAW264.7 over IC50 L. donovani Ld39 amastigotes. As for the experimental part: as §4, §5
Series [9] deals with L. donovani Ld39 promastigotes. Nature of the series: Anti-promastigote activity (MTS assay), L. donovani Ld39. The class given is cell-based. Conditions: Leishmania donovani, 72 hours. As to the method:
as §1, §2, §3

The subject of series [10] is RAW264.7 cells. Nature of the series: Reactive oxygen species (ROS) level, DCFDA, RAW264.7. The class given is cell-based, murine. As for the experimental part:
(§6) 50,000 RAW264.7 were seeded in each well of black 96-well plates overnight. Next day, RAW264.7 cells were pre-loaded with 10 μM dichlorofluorescein diacetate (DCFDA) (Abcam) for 1 hr at 37° C. with 5% CO2. A control of non-DCFDA stained cells was also included. The DCFDA-contained supplemented DMEM media was removed. The cells were re-suspended with 10 μM or 30 μM of respective tested compounds and positive control, tert-butyl hydroperoxide. In Leishmania, 1×10^7 promastigotes were also pre-loaded with 10 μM DCFDA at 27° C. for 1 hr. After removing the DCFDA-contained media, the promastigotes were seeded into black 96-well plate and incubated with 30 μM of respective compounds or positive control. The ROS level was determined at different periods of time including 2, 4, 6, 8, 20, 46 and 72 hr using microplate reader (excitation: 485 nm and emission: […]).
(§7) The ROS levels in both macrophage RAW264.7 and L. amazonensis promastigotes was measured by dichlorofluorescein diacetate (DCFDA) dye which is permeable to the cells. With oxidative stress, DCFDA would be oxidized to fluorescent DCF which is an indicator of intracellular ROS level. RAW cells or L. amazonensis promastigotes were pre-loaded with 10 μM of DCFDA for 1 hr, washed and exposed to 39, FM09, pentamidine and amphotericin B for different period of time (2, 4, 6, 8, 20, 46 and 72 hr). The fluorescence level was measured at the 520 nm using 485 nm as an excitation wavelength. 0.1% DMSO or 0.3% DMSO was used as a solvent control. The fluorescent value has been subtracted from non-DCFDA stained cells. The values were presented as mean±standard error of mean.

Series [11] has as its system L. amazonensis LV78 promastigotes. Nature of the series: Reactive oxygen species (ROS) level, DCFDA, promastigotes. The series is classed as cell-based. Conditions: 30 μM. As for the experimental part: as §6, §7

Consider `O=c1cc(-c2ccc(OCCN3CCN(Cc4ccccn4)CC3)cc2)oc2ccccc12` [FM01a, 2-(4-(2-(4-(pyridin-2-ylmethyl)piperazin-1-yl)ethoxy)phenyl)-4H-chromen-4-one], for which the half-inhibitory concentration (IC50) (as a rule, the concentration that inhibits the measured activity by half) was 11.7 ± 1.34 µM in series [1]; 60.3 ± 2.3 µM in series [2]; 8.74 ± 0.77 µM in [3]; 10 µM in series [4]; 15.4 ± 5.98 µM in [5].

On to `O=c1cc(-c2ccc(OCCC3CCN(Cc4ccccn4)CC3)cc2)oc2ccccc12` [FM05a, 2-(4-(2-(1-(pyridin-2-ylmethyl)piperidin-4-yl)ethoxy)phenyl)-4H-chromen-4-one], for which the IC50 in [1] was 2.97 ± 0.91 µM; in series [2], 58.9 ± 23.3 µM; in series [3], 3.57 ± 1.73 µM; in series [6] it was 17.6 µM; in series [4], 5.2 ± 1.68 µM; in [5], 7.43 ± 2.15 µM.

With `O=c1cc(-c2ccc(OCCOCCN(Cc3ncccn3)Cc3ncccn3)cc2)oc2ccccc12` [FM09d, 2-(4-(2-(2-(bis(pyrimidin-2-ylmethyl)amino)ethoxy)ethoxy)phenyl)-4H-chromen-4-one], the IC50 in series [1] was 35.3 ± 4.2 µM; in series [2], > 100 µM; in series [3], > 10 µM; in series [6], > 100 µM; in series [4], > 10 µM; in series [5], 42.4 ± 7.65 µM.

In the case of `O=c1cc(-c2ccc(OCCOCCN(Cc3ncccc3Cl)Cc3ncccc3Cl)cc2)oc2ccccc12` [FM09g, 2-(4-(2-(2-(bis((3-chloropyridin-2-yl)methyl)amino)ethoxy)ethoxy)phenyl)-4H-chromen-4-one], the IC50 is 28.1 ± 5.24 µM in series [1]; 33.7 ± 10.6 µM in series [2]; > 10 µM in series [3]; > 10 µM in [4]; 18.1 ± 4.88 µM in series [5].

Consider `O=c1cc(-c2ccc(OCCOCCNCc3ccccn3)cc2)oc2ccccc12` [FM09m, 2-(4-(2-(2-((pyridin-2-ylmethyl)amino)ethoxy)ethoxy)phenyl)-4H-chromen-4-one], for which the half-inhibitory concentration (IC50) in [2] came to 23.9 ± 1.15 µM; in [3] it was 4.46 ± 0.68 µM; in series [6], 28.4 µM; in series [4], 9.3 ± 0.56 µM; in series [5], 25.3 ± 3.94 µM.

`O=c1cc(-c2ccc(OCCOCCNC(c3ccccn3)c3ccccn3)cc2)oc2ccccc12` [FM09p, 2-(4-(2-(2-((di(pyridin-2-yl)methyl)amino)ethoxy)ethoxy)phenyl)-4H-chromen-4-one]: the half-inhibitory concentration (IC50) in series [1] was 2.8 µM; in series [2] it was 2.1 µM; in [6], 12.5 µM; in series [5], 2.4 µM.

`O=C(COc1ccc(-c2cc(=O)c3ccccc3o2)cc1)N1CCNCC1` [FM10, 2-(4-(2-oxo-2-(piperazin-1-yl)ethoxy)phenyl)-4H-chromen-4-one]: the IC50 in series [1] is 31.4 ± 2.4 µM; in series [2], > 33 µM; in series [7] it was 78.5 ± 11.3 µM; in series [3] it was 6 ± 0.2 µM; in series [8], > 10 µM; in [5], 37.6 ± 2.8 µM. For the same molecule, 49.5 ± 8 µM corresponded to half-maximal inhibition in series [9] (IC50).

Turning to `O=C(COc1ccc(-c2cc(=O)c3ccccc3o2)cc1)N1CCCNCC1` [FM11, 2-(4-(2-(1,4-diazepan-1-yl)-2-oxoethoxy)phenyl)-4H-chromen-4-one], the concentration for half-maximal inhibition (IC50) in series [1] was > 100 µM; in series [2], > 33 µM; in series [7] it was > 100 µM; in [3] it was 7.1 ± 1.6 µM; in series [8] it was > 10 µM; in series [5], 66.9 ± 9.7 µM. Besides, the IC50 in [9] is > 100 µM.

For the molecule `O=C(COc1ccc(-c2cc(=O)c3ccccc3o2)cc1)N1CCN(Cc2ccncc2)CC1` [FM12, 2-(4-(2-oxo-2-(4-(pyridin-4-ylmethyl)piperazin-1-yl)ethoxy)phenyl)-4H-chromen-4-one], the IC50 is > 100 µM in series [1]; > 100 µM in series [2]; > 100 µM in series [7]; > 10 µM in series [3]; > 10 µM in series [8]; 25.4 ± 3.6 µM in series [5]. The IC50 in [9] turned out to be 15 ± 2.2 µM.

With `O=C(COc1ccc(-c2cc(=O)c3ccccc3o2)cc1)N1CCN(C(=O)c2ccncc2)CC1` [FM16, 2-(4-(2-(4-isonicotinoylpiperazin-1-yl)-2-oxoethoxy)phenyl)-4H-chromen-4-one], the IC50 is > 100 µM in [1]; > 100 µM in series [2]; > 100 µM in series [7]; > 10 µM in [3]; 5.7 µM in series [8]; > 50 µM in [5]. The molecule further registered an IC50 in series [9] of 87.1 ± 13 µM. The “Selective index (a)/(c)” value in series [8] was >17.5; in [8] (listed as 16) it was > 17.5.

With `CC(C)(C)OO` [tert-butyl hydroperoxide], the “RAW264.7 ROS Level, Relative fold (RF)” value in [10] (10 μM, 2 hr) is reported as 2.3 fold; in [10] (10 μM, 4 hr), 2.3 fold; in [10] (10 μM, 6 hr), 2.2 fold; in series [10] (10 μM, 8 hr), 1.9 fold; in [10] (10 μM, 20 hr), 1.8 fold; in series [10] (30 μM, 2 hr), 2.9 fold. The “RAW264.7 ROS Level, Relative fold (RF)” value in series [10] (30 μM, 4 hr) turned out to be 2.9 fold; in [10] (30 μM, 6 hr) it was 2.6 fold; in series [10] (30 μM, 20 hr), 1.9 fold; in series [10] (30 μM, 46 hr), 1.6 fold. Besides, the “L. amazon LV78 promastigote ROS Level, Relative fold (RF)” value is on record as 1.4 fold in series [11] (2 hr); 1.3 fold in [11] (4 hr); 1.4 fold in series [11] (6 hr); 1.7 fold in series [11] (20 hr); 1.5 fold in series [11] (46 hr); 1.9 fold in [11] (72 hr).
